From ChEMBL document CHEMBL1201862, “PubChem BioAssay data set” (2004)
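All cell lines were grown in 96-well plates and treated with compound for 48 hours. GI50 marks 50% less growth.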 Calls of active or inactive are those of the source. Rule as the data show it: active = GI50 up to about 1.1 µM and inactive = higher. *1 amine or outer side, *2 acyl side, *3 side chain or, on linkers, in order; H or OH if unused. Where a SMILES comes first, the peptide text is derived from it. Bridges are numbered along the chain shown (N, C = ends). [ ]: non-standard residue; d: D form. The star is where a group is joined. X36 = O=C(C(CCCCNO[*:3])N[*:1])[*:2]; Fmoc = O=C(OCC1c2ccccc2-c2ccccc21)*; Boc = CC(C)(C)OC(=O)*

Tests used:
Assay in all cases: NCI anticancer screen, dose series, 48 h
A498 = test system: A498
ACHN = test system: ACHN
BT-549 = test system: BT-549
COLO 205 = test system: COLO 205
HL-60 = test system: HL-60
HOP-92 = test system: HOP-92
Hs-578T = test system: Hs-578T
KM12 = test system: KM12
MDA-MB-231 = test system: MDA-MB-231
MOLT-4 = test system: MOLT-4
NCI/ADR-RES = test system: NCI/ADR-RES
OVCAR-4 = test system: OVCAR-4
OVCAR-5 = test system: OVCAR-5
SK-MEL-28 = test system: SK-MEL-28
SN12C = test system: SN12C
SNB-19 = test system: SNB-19
SNB-75 = test system: SNB-75
SW-620 = test system: SW-620
U-251 = test system: U-251
NCI-H226 = test system: NCI-H226

Compound | GI50 (A498) | GI50 (ACHN) | GI50 (BT-549) | GI50 (COLO 205) | GI50 (HL-60) | GI50 (HOP-92) | GI50 (Hs-578T) | GI50 (KM12) | GI50 (MDA-MB-231) | GI50 (MOLT-4) | GI50 (NCI/ADR-RES) | GI50 (OVCAR-4) | GI50 (OVCAR-5) | GI50 (SK-MEL-28) | GI50 (SN12C) | GI50 (SNB-19) | GI50 (SNB-75) | GI50 (SW-620) | GI50 (U-251) | GI50 (NCI-H226)
O=C(/C=N/O)Nc1cc(Cl)c(Cl)cc1Cl | 16.6 µM (inactive) | 29.9 µM (inactive) | 27.2 µM (inactive) | 26.8 µM (inactive) | 18.7 µM (inactive) | 26.9 µM (inactive) | 29.2 µM (inactive) | 26.5 µM (inactive) | 25.8 µM (inactive) | 15.1 µM (inactive) | 33.9 µM (inactive) | 26.1 µM (inactive) | 42.1 µM (inactive) | 41 µM (inactive) | 23.9 µM (inactive) | 50.5 µM (inactive) | 20.7 µM (inactive) | 35.7 µM (inactive) | 29.2 µM (inactive) | 
CCCN1C(=O)CC(C)N(Cc2ccccc2Cl)C1=S (stereo not given) | 14.2 µM (inactive) | 24.5 µM (inactive) | 24.4 µM (inactive) | 16.9 µM (inactive) | 37.4 µM (inactive) | 24.2 µM (inactive) | 30.8 µM (inactive) | 28.9 µM (inactive) | 28.7 µM (inactive) | 28.2 µM (inactive) | 21.2 µM (inactive) | 43.7 µM (inactive) | 50.2 µM (inactive) | 22.9 µM (inactive) | 30.6 µM (inactive) | 46.1 µM (inactive) |  | 30.8 µM (inactive) | 24 µM (inactive) | 
O=C1CS(=O)(=O)C(c2cccc(Oc3ccccc3)c2)N1c1cccc(Cl)c1 (stereo not given) |  | 24.3 µM (inactive) | 29.9 µM (inactive) | 18.8 µM (inactive) | 30 µM (inactive) | 11.6 µM (inactive) | 27.5 µM (inactive) | 26.5 µM (inactive) | 29.1 µM (inactive) | 19.1 µM (inactive) | 29.8 µM (inactive) | 26.5 µM (inactive) | 55.1 µM (inactive) | 36.6 µM (inactive) | 31.8 µM (inactive) | 43.4 µM (inactive) | 36.3 µM (inactive) | 24.8 µM (inactive) | 21.2 µM (inactive) | 27.7 µM (inactive)
CCN1C(=O)C(=C/C=C/c2ccc([N+](=O)[O-])cc2)C(=O)N(CC)C1=S |  | 18.1 µM (inactive) | 16.5 µM (inactive) | 35.1 µM (inactive) | 82.6 µM (inactive) | 18.3 µM (inactive) | 15.3 µM (inactive) | 22.3 µM (inactive) | 21.3 µM (inactive) | 29.6 µM (inactive) | 19.5 µM (inactive) | 33 µM (inactive) | > 100 µM (inactive) | 18 µM (inactive) | 21.5 µM (inactive) | 37.9 µM (inactive) |  | 19.1 µM (inactive) | 18.5 µM (inactive) | 25.4 µM (inactive)
NC(=O)CNC(=O)C1CCCN1C(=O)C1CCCCNOC(=O)CCC(NC(=O)OCC2c3ccccc3-c3ccccc32)C(=O)NC(Cc2c[nH]c3ccccc23)C(=O)N1 (stereo not given) (Fmoc-EW[X36]PG-NH2; ester 1-3; configuration not given here) |  | > 100 µM (inactive) | > 100 µM (inactive) | > 100 µM (inactive) | > 100 µM (inactive) | > 100 µM (inactive) | > 100 µM (inactive) | > 100 µM (inactive) | 15.2 µM (inactive) | > 100 µM (inactive) | > 100 µM (inactive) | > 100 µM (inactive) | > 100 µM (inactive) | > 100 µM (inactive) | > 100 µM (inactive) | > 100 µM (inactive) | > 100 µM (inactive) | > 100 µM (inactive) | > 100 µM (inactive) | > 100 µM (inactive)
COc1cc(C=C2C(=O)NC(=S)NC2=O)cc(OC)c1OC |  | > 100 µM (inactive) | > 100 µM (inactive) | > 100 µM (inactive) | > 100 µM (inactive) | > 100 µM (inactive) | > 100 µM (inactive) | > 100 µM (inactive) | > 100 µM (inactive) | > 100 µM (inactive) | > 100 µM (inactive) | > 100 µM (inactive) | > 100 µM (inactive) | > 100 µM (inactive) | > 100 µM (inactive) | > 100 µM (inactive) | 60.7 µM (inactive) | > 100 µM (inactive) | > 100 µM (inactive) | > 100 µM (inactive)
CCCNC(=O)c1cc(NC(=O)c2cc(NC(=O)/C=C/c3ccccc3)c(OC)c(OC)c2)c(OC)c(OC)c1 | 11.4 µM (inactive) | 7.94 µM (inactive) | 17.8 µM (inactive) | > 100 µM (inactive) | > 100 µM (inactive) |  | 1.92 µM (inactive) | 8.28 µM (inactive) | 1.26 µM (inactive) | > 100 µM (inactive) | 9.33 µM (inactive) | 2.54 µM (inactive) | 12.7 µM (inactive) | 14.5 µM (inactive) | 0.248 µM (active) | 5.87 µM (inactive) | 2.49 µM (inactive) | > 100 µM (inactive) | 4.11 µM (inactive) | 0.0216 µM (active)
[O-][S+](c1ccccc1)c1ccc(/N=N/O)nc1 (stereo not given) | > 100 µM (inactive) | > 100 µM (inactive) | > 100 µM (inactive) | > 100 µM (inactive) | > 100 µM (inactive) |  | > 100 µM (inactive) | > 100 µM (inactive) | > 100 µM (inactive) | > 100 µM (inactive) | > 100 µM (inactive) | > 100 µM (inactive) | > 100 µM (inactive) | > 100 µM (inactive) | > 100 µM (inactive) | > 100 µM (inactive) | > 100 µM (inactive) | > 100 µM (inactive) | > 100 µM (inactive) | 69.8 µM (inactive)
C[C@]12CCC(=O)C=C1CC[C@@H]1[C@@H]2CC[C@]2(C)C(=O)/C(=C/c3ccncc3)C[C@@H]12 |  | 14.8 µM (inactive) | 19.2 µM (inactive) | 13.2 µM (inactive) | 8.51 µM (inactive) | 19.1 µM (inactive) | 29.8 µM (inactive) | 13.4 µM (inactive) | 15.2 µM (inactive) | 16.4 µM (inactive) | 26.2 µM (inactive) | 17.2 µM (inactive) | 16.9 µM (inactive) | 20 µM (inactive) | 16.7 µM (inactive) | 13.2 µM (inactive) | 19.6 µM (inactive) | 23.8 µM (inactive) | 12.4 µM (inactive) | 16.9 µM (inactive)
N#Cc1sc2c(c1OC(=O)c1cccs1)c(=O)n(-c1ccccc1)c(=S)n2-c1ccccc1 |  |  | 15.5 µM (inactive) | 19.9 µM (inactive) | 21.3 µM (inactive) |  | 15.2 µM (inactive) | 18.9 µM (inactive) | 20.1 µM (inactive) | 19.4 µM (inactive) | 21.8 µM (inactive) | 20.7 µM (inactive) |  | 21.9 µM (inactive) | 19.2 µM (inactive) | 26.5 µM (inactive) | 38.7 µM (inactive) | 21.8 µM (inactive) | 20.2 µM (inactive) | 19.5 µM (inactive)
CC(C)(C)OC(=O)NCCCCC(NC(=O)C(Cc1c[nH]c2ccccc12)NC(=O)OCC1c2ccccc2-c2ccccc21)C(=O)O (stereo not given) (Fmoc-Trp-Lys(Boc)-OH; configuration not given here) |  | > 100 µM (inactive) | 35.6 µM (inactive) | 64.7 µM (inactive) | 15.5 µM (inactive) | 23.8 µM (inactive) | 30.3 µM (inactive) | 47.8 µM (inactive) | 27.5 µM (inactive) | 19.8 µM (inactive) | > 100 µM (inactive) | 33.7 µM (inactive) | > 100 µM (inactive) | 26.3 µM (inactive) | 52.2 µM (inactive) | 27.3 µM (inactive) | 55 µM (inactive) | 48.3 µM (inactive) | 17.1 µM (inactive) | 43.7 µM (inactive)
O=[N+]([O-])c1ccc(-c2nc(/C=N/N3CCCCC3)cs2)o1 |  | > 100 µM (inactive) | 92.5 µM (inactive) | 30.2 µM (inactive) | 20.1 µM (inactive) | > 100 µM (inactive) | > 100 µM (inactive) | 33.9 µM (inactive) | 48.4 µM (inactive) | 26.5 µM (inactive) | 74.8 µM (inactive) | 23.6 µM (inactive) | > 100 µM (inactive) | 31.6 µM (inactive) | 16.2 µM (inactive) | > 100 µM (inactive) | > 100 µM (inactive) | > 100 µM (inactive) | > 100 µM (inactive) | > 100 µM (inactive)
CNNC1=NS(=O)(=O)c2cc(C)c(Cl)cc2S1 | > 10 µM (inactive) | > 10 µM (inactive) | > 10 µM (inactive) | > 10 µM (inactive) | > 10 µM (inactive) |  | > 10 µM (inactive) | > 10 µM (inactive) | > 10 µM (inactive) | > 10 µM (inactive) | > 10 µM (inactive) | > 10 µM (inactive) | > 10 µM (inactive) | > 10 µM (inactive) | > 10 µM (inactive) | > 10 µM (inactive) | > 10 µM (inactive) | > 10 µM (inactive) | > 10 µM (inactive) | > 10 µM (inactive)
CN(C)CCOc1ccc([N+](=O)[O-])c2cccnc12 | > 100 µM (inactive) | > 100 µM (inactive) | > 100 µM (inactive) | 43 µM (inactive) | > 100 µM (inactive) |  | > 100 µM (inactive) | > 100 µM (inactive) | 30.2 µM (inactive) | 60.8 µM (inactive) | > 100 µM (inactive) |  | > 100 µM (inactive) | > 100 µM (inactive) | 60.4 µM (inactive) | > 100 µM (inactive) | 40.8 µM (inactive) | 78.7 µM (inactive) | > 100 µM (inactive) | > 100 µM (inactive)
